Values of other authors as cited in patent US10105355B2 (BASF SE, priority 2014, dated 2018).
Where two headings read alike, the source gives them in different places.

- estimated elimination half-life (t½) (after a single dose treatment): 12 days
- estimated elimination half-life (t½) (after continuous once-daily dosing): 4 days
- exposure linearity (single doses higher than 270 mg): not linear
Compound: CS(=O)(=O)c1ccc(C(=O)Nc2ccc(Cl)c(-c3ccccn3)c2)c(Cl)c1 [Vismodegib, 2-Chloro-N-(4-chloro-3-pyridin-2-ylphenyl)-4-methylsulfonylbenzamide]
